The text below walks through data of patent publication US8637493B2, “Methods for treating glioblastoma” (University of Massachusetts, priority 2009, dated 2014).

SMILES strings stand for the structures.

For one assay, the system named is U87NS. The experiment in a line: Neurosphere formation / recovery / secondary neurosphere assay, U87NS. The assay is classed as cell-based, human. Conditions: LY alone at various concentrations, counted after 7 days. As for the experimental part: (§1) The effect of chemotherapy on neurosphere formation was assayed in glioma neurosphere cultures. Cultures are treated with a single dose of the agent, e.g., TMZ and multiple doses of a GSI, e.g., DAPT to inhibit the Notch pathway. After the Treatment phase, the number of initial spheres (counted about 7 days after TMZ treatment) represents the number of proliferating CSC/progenitors (FIG. 1 for schematic). Recovery (counted 14 days after TMZ treatment) includes enlargement of the initial spheres and new spheres formed when CSC/progenitor cells quiescent as a result of chemotherapy resume cell proliferation. […] The cells used included U87NS, a neurosphere culture converted to neurosphere growth in defined medium from U87MG (an old Swedish line that is grown in conventional serum conditions); GS7-2, GS8-26 and GS6-22 primary neurosphere cultures that were obtained from grade IV GBM patient tumor samples and AS5-15, which was obtained from a grade III anaplastic astrocytoma.
(§2) To determine the effects of TMZ plus DAPT neurospheres, cells were plated as previously described (Mihaliak et al., Cancer Letts. 296, 168-177 (2010)). Immediately after plating, cells were treated with DMSO, DAPT-only, LY411,575 (LY)-only TMZ-only, TMZ+DAPT or TMZ+LY. The initial neurospheres were counted on day 7 for the converted cell lines and on day 10 for the slower growing primary lines. Neurosphere recovery was measured on day 14 or 20. The neurospheres were dissociated, re-plated and secondary neurosphere formation was measured on day 21 or 30.
(§3) Neurosphere cultures were dissociated to single cell suspensions by pH dissociation followed by filtration through 40 μm screens. For the neurosphere assay, 3,000 cells/ml of defined medium were seeded in 6-well plates. Immediately after plating, cells were treated with DMSO (Research Organics, Cleveland, Ohio) carrier control, TMZ-only, DAPT-only, or TMZ+DAPT. Additional DAPT was added on days 2 and 4. Neurospheres consisting of 10 or more cells were counted under a light microscope on day 7 for the converted cell lines. Primary lines have a slightly longer doubling time and were counted on day 10. After counting the neurospheres from the initial treatment, 2 ml of fresh defined medium was added to each well. DAPT was also added once more to the DAPT-only and TMZ+DAPT samples, and the cells were incubated for an additional 7 or 10 days. Neurospheres from the recovery period were counted on day 14 or day 20. To analyze secondary neurosphere formation, cells were collected, pelleted and dissociated to a single cell suspension by the pH method. Cells from each well were re-seeded into 6-well plates with 2 ml of defined medium. The number of secondary neurospheres formed by converted cell lines and primary cultures were counted on day 21 or day 30, respectively. All recovery assays were repeated with a minimum of 6 replicate sets of time points.
For the samples labeled “PRE-treat”, a single dose of DAPT was administered when the cells were plated, and then TMZ was added to the medium 24 hours later. For the “CO-treat” samples, single doses of TMZ and DART were added simultaneously when the cells were plated. Finally, samples labeled “POST-treat” were treated with TMZ, and then DAPT was added 24 hours later.

A further assay has as its system U373NS. Briefly: Neurosphere formation / recovery / secondary neurosphere assay, U373NS. The assay is classed as cell-based, human. As for the experimental part:
as §1, §2, §3

Consider `C[C@H](NC(=O)[C@@H](O)c1cc(F)cc(F)c1)C(=O)N[C@@H]1C(=O)N(C)c2ccccc2-c2ccccc21` [LY, N-2((2S)-2-(3,5-difluorophenyl)-2-hydroxyethanoyl)-N1-((7S)-5-methyl-6-oxo-6,7-dihydro-5H-dibenzo[b,d]azepin-7-yl)-L-alaninamide], for which the neurosphere formation result is recorded as “dose-dependent decrease” with U87NS and “dose-dependent decrease” in the assay with U373NS (LY alone at various concentrations, counted after 7 days). For the same compound, the “secondary neurosphere formation compared to DMSO treated samples” value in the assay with U373NS (LY-only, secondary formation still robust) is “decreased”.
